Among the data in patent US10398723B1, “Hyaluronan-containing composition and use thereof for mitigation and/or prevention of inflammation and/or pain” (Viscos, LLC, priority 2015, dated 2019) are inflammatory cell activation values, retold here.

The subject of this test is whole blood culture. Put plainly: inflammatory cell activation (CD69, CD25 expression) in whole blood culture. The format is cell-based. The note with it: samples from human subjects; 0.006 mg/mL, 0.05 g/mL or 0.4 mg/mL in culture medium; dose-dependent. How it is done:
A dose of 0.006 mg/mL, […] or 0.4 mg/mL (concentration of formulation in culture medium) was employed, but any dose less than 0.006 mg/mL or greater than 0.4 mg/mL or between 0.006 mg/mL and 0.4 mg/mL (concentration of formulation in any diluent) is likewise within the scope of this disclosure. […] Activation of inflammatory cells was measured, and is verified by assays known in the art, by expression of CD69, a protein expressed on activated white blood cells including T lymphocytes, NK cells, monocytes and PMN cells. Activation of inflammatory cells was measured, and is verified by assays known in the art, by expression of CD25, the alpha chain of the low affinity interleukin-2 (IL-2) receptor. […] An increase such as that observed in this Example may be, by way of example and not of limitation, of at least about 1%, or of at least about 2%, or of at least about 5%, or of at least about 10%, or of at least about 20%, or of at least about 30%, or of at least about 40%, or of at least about 50%, or of at least about 60%, or of at least about 70%, or of at least about 80%, or of at least about 90%. A statistically significant decrease is a function of sample size and variability. […]

In the case of `CS(C)(=O)=O` [MSM, methylsulfonylmethane], the inflammatory cell activation entry is “decrease”.

For Hyaluronan [HA], the inflammatory cell activation result is recorded as “decrease”.
